Measured values from PubChem BioAssay AID1919009 (Molecular Pharmacology Branch, DTP, NCI, 2023).
Values belong to the compound of their own block, whether it stands above or below them.

System: K24384-001-R-PDC complex spheroid growth
Test: Anticancer human tumor K24384-001-R-PDC patient-derived pancreatic adenocarcinoma cell line growth inhibition [AhR]
Details: for IC50: curve of first compound; for viability, T/C: stronger effect = lower value
Procedure, shortened: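 Agents were dosed in half-log steps down from roughly clinical Cmax, or from 10 microM where Cmax was unknown, alone and with AhR antagonists. Read-out: percent test/control growth of tumor spheroids containing HUVEC and MSC stromal cells.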
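Throughout, for viability, T/C: percent of DMSO vehicle-treated spheroid viability set as 100%.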

IC50 (second compound 0.1 µM): 6.2 µM
IC50 (second compound 0.316 µM): 5.76 µM
IC50 (second compound 1 µM): 7.2 µM
IC50 (second compound 3.16 µM): 7.67 µM
IC50 (second compound 10 µM): < 0.0316 µM
SMILES: CC1(C)CCC(CN2CCN(c3ccc(C(=O)NS(=O)(=O)c4ccc(NCC5CCOCC5)c([N+](=O)[O-])c4)c(Oc4cnc5[nH]ccc5c4)c3)CC2)=C(c2ccc(Cl)cc2)C1 + Cc1cncc(-c2nc(NCCc3c[nH]c4ccccc34)c3ncn(C(C)C)c3n2)c1
viability, T/C (second compound 0.1 µM, first compound 0.0316 µM): 137%
viability, T/C (second compound 0.1 µM, first compound 0.1 µM): 128%
viability, T/C (second compound 0.1 µM, first compound 0.316 µM): 129%
viability, T/C (second compound 0.1 µM, first compound 1 µM): 86.7%
viability, T/C (second compound 0.1 µM, first compound 3.16 µM): 101%
viability, T/C (second compound 0.1 µM, first compound 10 µM): 22%
viability, T/C (second compound 0.316 µM, first compound 0.0316 µM): 134%
viability, T/C (second compound 0.316 µM, first compound 0.1 µM): 140%
viability, T/C (second compound 0.316 µM, first compound 0.316 µM): 126%
viability, T/C (second compound 0.316 µM, first compound 1 µM): 95.5%
viability, T/C (second compound 0.316 µM, first compound 3.16 µM): 92.7%
viability, T/C (second compound 0.316 µM, first compound 10 µM): 18.6%
viability, T/C (second compound 1 µM, first compound 0.0316 µM): 117%
viability, T/C (second compound 1 µM, first compound 0.1 µM): 157%
viability, T/C (second compound 1 µM, first compound 0.316 µM): 137%
viability, T/C (second compound 1 µM, first compound 1 µM): 122%
viability, T/C (second compound 1 µM, first compound 3.16 µM): 119%
viability, T/C (second compound 1 µM, first compound 10 µM): 23.1%
viability, T/C (second compound 3.16 µM, first compound 0.0316 µM): 116%
viability, T/C (second compound 3.16 µM, first compound 0.1 µM): 148%
viability, T/C (second compound 3.16 µM, first compound 0.316 µM): 138%
viability, T/C (second compound 3.16 µM, first compound 1 µM): 119%
viability, T/C (second compound 3.16 µM, first compound 3.16 µM): 124%
viability, T/C (second compound 3.16 µM, first compound 10 µM): 27.5%
viability, T/C (second compound 10 µM, first compound 0.0316 µM): 20.5%
viability, T/C (second compound 10 µM, first compound 0.1 µM): 21%
viability, T/C (second compound 10 µM, first compound 0.316 µM): 16.6%
viability, T/C (second compound 10 µM, first compound 1 µM): 19.1%
viability, T/C (second compound 10 µM, first compound 3.16 µM): 19.9%
viability, T/C (second compound 10 µM, first compound 10 µM): 25%

IC50 (second compound 0.1 µM): > 3 µM
IC50 (second compound 0.316 µM): > 3 µM
IC50 (second compound 1 µM): > 3 µM
IC50 (second compound 3.16 µM): > 3 µM
IC50 (second compound 10 µM): < 0.00949 µM
SMILES: CCN(c1cc(-c2ccc(CN3CCOCC3)cc2)cc(C(=O)NCc2c(C)cc(C)[nH]c2=O)c1C)C1CCOCC1 + Cc1cncc(-c2nc(NCCc3c[nH]c4ccccc34)c3ncn(C(C)C)c3n2)c1
viability, T/C (second compound 0.1 µM, first compound 0.00949 µM): 118%
viability, T/C (second compound 0.1 µM, first compound 0.03 µM): 126%
viability, T/C (second compound 0.1 µM, first compound 0.0949 µM): 129%
viability, T/C (second compound 0.1 µM, first compound 0.3 µM): 115%
viability, T/C (second compound 0.1 µM, first compound 0.949 µM): 130%
viability, T/C (second compound 0.1 µM, first compound 3 µM): 133%
viability, T/C (second compound 0.316 µM, first compound 0.00949 µM): 138%
viability, T/C (second compound 0.316 µM, first compound 0.03 µM): 139%
viability, T/C (second compound 0.316 µM, first compound 0.0949 µM): 150%
viability, T/C (second compound 0.316 µM, first compound 0.3 µM): 132%
viability, T/C (second compound 0.316 µM, first compound 0.949 µM): 120%
viability, T/C (second compound 0.316 µM, first compound 3 µM): 108%
viability, T/C (second compound 1 µM, first compound 0.00949 µM): 126%
viability, T/C (second compound 1 µM, first compound 0.03 µM): 150%
viability, T/C (second compound 1 µM, first compound 0.0949 µM): 144%
viability, T/C (second compound 1 µM, first compound 0.3 µM): 133%
viability, T/C (second compound 1 µM, first compound 0.949 µM): 128%
viability, T/C (second compound 1 µM, first compound 3 µM): 120%
viability, T/C (second compound 3.16 µM, first compound 0.00949 µM): 116%
viability, T/C (second compound 3.16 µM, first compound 0.03 µM): 101%
viability, T/C (second compound 3.16 µM, first compound 0.0949 µM): 120%
viability, T/C (second compound 3.16 µM, first compound 0.3 µM): 113%
viability, T/C (second compound 3.16 µM, first compound 0.949 µM): 101%
viability, T/C (second compound 3.16 µM, first compound 3 µM): 96.1%
viability, T/C (second compound 10 µM, first compound 0.00949 µM): 18.7%
viability, T/C (second compound 10 µM, first compound 0.03 µM): 17.1%
viability, T/C (second compound 10 µM, first compound 0.0949 µM): 17.3%
viability, T/C (second compound 10 µM, first compound 0.3 µM): 11.9%
viability, T/C (second compound 10 µM, first compound 0.949 µM): 10.1%
viability, T/C (second compound 10 µM, first compound 3 µM): 8.09%
